According to the supplement of paper PMC4862054:

What was measured:
Assay in all cases: normalised viability (% of control), CellTiter-Blue; higher = more viable cells (about 100 = DMSO control)
Details in all cases: incubation time: 72 h
[1] = tested on: DU-4475
Procedure, shortened: (§1)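 Breast cancer cell lines in 20 µl suspension were seeded onto 384-well plates pre-loaded with compound dissolved in 5 µl medium, then incubated 72 h. CellTiter-Blue reagent (2.5 µl) was added for 2 h at 37 °C and fluorescence read at 560/590 nm. Each plate was normalised to vehicle (100) and a positive kill control (0), with Z'-factor quality control. The value is normalised viability at one listed concentration of the series.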

[2] = tested on: BT-474
Procedure, shortened: as §1

[3] = tested on: MFM-223
Procedure, shortened: as §1

[4] = tested on: CAL-51
Procedure, shortened: as §1

[5] = tested on: HDQ-P1
Procedure, shortened: as §1

[6] = tested on: HCC1937
Procedure, shortened: as §1

[7] = tested on: MDA-MB-453
Procedure, shortened: as §1

[8] = tested on: MDA-MB-468
Procedure, shortened: as §1

[9] = tested on: Hs578T
Procedure, shortened: as §1

[10] = tested on: SK-BR-3
Procedure, shortened: as §1

[11] = tested on: CAL-120
Procedure, shortened: as §1

[12] = tested on: CAL-148
Procedure, shortened: as §1

[13] = tested on: DU-4475; remark: listed apart in the source
Experimental: (§2)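 DSRT, CellTiter-Blue viability, 72 h incubation. Signal is normalised to DMSO and benzethonium chloride controls. Value is the normalised response at dose 3.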

[14] = tested on: HCC1143
Experimental: as §2

[15] = tested on: BT-474; remark: listed apart in the source
Experimental: as §2

[16] = tested on: BT-549
Experimental: as §2

[17] = tested on: MDA-MB-231
Experimental: as §2

[18] = tested on: HCC1599
Experimental: as §2

[19] = tested on: MFM-223; remark: listed apart in the source
Experimental: as §2

[20] = tested on: CAL-51; remark: listed apart in the source
Experimental: as §2

[21] = tested on: MDA-MB-436
Experimental: as §2

[22] = tested on: HDQ-P1; remark: listed apart in the source
Experimental: as §2

[23] = tested on: HCC1937; remark: listed apart in the source
Experimental: as §2

[24] = tested on: MDA-MB-453; remark: listed apart in the source
Experimental: as §2

[25] = tested on: MDA-MB-468; remark: listed apart in the source
Experimental: as §2

[26] = tested on: Hs578T; remark: listed apart in the source
Experimental: as §2

[27] = tested on: SK-BR-3; remark: listed apart in the source
Experimental: as §2

[28] = tested on: CAL-85-1
Experimental: as §2

[29] = tested on: CAL-120; remark: listed apart in the source
Experimental: as §2

[30] = tested on: CAL-148; remark: listed apart in the source
Experimental: as §2

CO[C@H]1/C=C\C=C(/C)C(=O)NC2=CC(=O)C(NCCN(C)C)=C(C[C@@H](C)C[C@H](OC)[C@H](O)[C@@H](C)/C=C(\C)[C@@H]1OC(N)=O)C2=O [Alvespimycin]
Details | normalised viability [%]
[1], 0.3 nM | 99
[1], 3 nM | 93.1
[1], 10 nM | 84.5
[2], 1 nM | 116
[2], 100 nM | 28.3
[2], 1000 nM | 27.8
[3], 1 nM | 97.4
[3], 100 nM | 27.3
[3], 1000 nM | 23.4
[4], 0.3 nM | 97
[4], 3 nM | 96
[4], 10 nM | 86.8
[5], 0.3 nM | 99.3
[5], 3 nM | 102
[5], 10 nM | 112
[6], 1 nM | 110
[6], 100 nM | 40.7
[6], 1000 nM | 29
[7], 0.3 nM | 115
[7], 3 nM | 87.4
[7], 10 nM | 61.7
[8], 1 nM | 111
[8], 100 nM | 44.6
[8], 1000 nM | 29.3
[9], 1 nM | 102
[9], 100 nM | 43.6
[9], 1000 nM | 40.1
[10], 1 nM | 97.7
[10], 100 nM | 19
[10], 1000 nM | 16.3
[11], 1 nM | 108
[11], 100 nM | 26.7
[11], 1000 nM | 17.4
[12], 0.3 nM | 107
[12], 3 nM | 102
[12], 10 nM | 101
[13], 1 nM | 105
[14], 10 nM | 86.1
[15], 10 nM | 92.1
[16], 10 nM | 43.2
[17], 10 nM | 97.2
[18], 10 nM | 77
[19], 10 nM | 58.3
[20], 1 nM | 90
[21], 10 nM | 74.9
[22], 1 nM | 112
[23], 10 nM | 55.9
[24], 1 nM | 93.4
[25], 10 nM | 102
[26], 10 nM | 51.5
[27], 10 nM | 51.5
[28], 1 nM | 97.2
[29], 10 nM | 86.3
[30], 1 nM | 109

CCN(CCCOc1ccc2c(Nc3cc(CC(=O)Nc4cccc(F)c4)[nH]n3)ncnc2c1)CCOP(=O)(O)O [Barasertib]
Details | normalised viability [%]
[1], 0.3 nM | 112
[1], 3 nM | 105
[1], 10 nM | 91.6
[2], 1 nM | 108
[2], 100 nM | 95.1
[2], 1000 nM | 92.1
[3], 1 nM | 103
[3], 100 nM | 95.7
[3], 1000 nM | 85.8
[4], 0.3 nM | 106
[4], 3 nM | 103
[4], 10 nM | 83.6
[5], 0.3 nM | 103
[5], 3 nM | 106
[5], 10 nM | 109
[6], 1 nM | 69
[6], 100 nM | 44.3
[6], 1000 nM | 52.8
[7], 0.3 nM | 104
[7], 3 nM | 92.8
[7], 10 nM | 65.6
[8], 1 nM | 115
[8], 100 nM | 34.4
[8], 1000 nM | 26.5
[9], 1 nM | 106
[9], 100 nM | 62.6
[9], 1000 nM | 70.7
[10], 1 nM | 107
[10], 100 nM | 82.7
[10], 1000 nM | 91.9
[11], 1 nM | 111
[11], 100 nM | 61.9
[11], 1000 nM | 51.7
[12], 0.3 nM | 98.4
[12], 3 nM | 105
[12], 10 nM | 39.7
[13], 1 nM | 102
[14], 10 nM | 111
[15], 10 nM | 90.2
[16], 10 nM | 96.8
[17], 10 nM | 102
[18], 10 nM | 101
[19], 10 nM | 93.4
[20], 1 nM | 96
[21], 10 nM | 113
[22], 1 nM | 111
[23], 10 nM | 101
[24], 1 nM | 108
[25], 10 nM | 99.4
[26], 10 nM | 87.9
[27], 10 nM | 68.3
[28], 1 nM | 95.5
[29], 10 nM | 88.1
[30], 1 nM | 102

Cc1ccc(-n2nc(C(C)(C)C)cc2NC(=O)Nc2ccc(OCCN3CCOCC3)c3ccccc23)cc1 [Doramapimod]
Details | normalised viability [%]
[1], 3 nM | 123
[1], 30 nM | 89.1
[1], 100 nM | 97.1
[2], 10 nM | 101
[2], 1000 nM | 101
[2], 10000 nM | 96.9
[3], 10 nM | 103
[3], 1000 nM | 92.8
[3], 10000 nM | 81.5
[4], 3 nM | 116
[4], 30 nM | 105
[4], 100 nM | 95.7
[5], 3 nM | 88.8
[5], 30 nM | 78
[5], 100 nM | 82.4
[6], 10 nM | 45.3
[6], 1000 nM | 90.2
[6], 10000 nM | 97.9
[7], 3 nM | 109
[7], 30 nM | 105
[7], 100 nM | 106
[8], 10 nM | 96
[8], 1000 nM | 115
[8], 10000 nM | 119
[9], 10 nM | 111
[9], 1000 nM | 120
[9], 10000 nM | 113
[10], 10 nM | 91.1
[10], 1000 nM | 98.2
[10], 10000 nM | 97.1
[11], 10 nM | 95.4
[11], 1000 nM | 81.2
[11], 10000 nM | 95.8
[12], 3 nM | 90
[12], 30 nM | 90.9
[12], 100 nM | 87.5
[13], 10 nM | 106
[14], 100 nM | 100
[15], 100 nM | 93.8
[16], 100 nM | 98.7
[17], 100 nM | 92.5
[18], 100 nM | 90.9
[19], 100 nM | 109
[20], 10 nM | 110
[21], 100 nM | 86
[22], 10 nM | 93.8
[23], 100 nM | 94.7
[24], 10 nM | 106
[25], 100 nM | 98
[26], 100 nM | 78
[27], 100 nM | 69.7
[28], 10 nM | 91.1
[29], 100 nM | 87.3
[30], 10 nM | 95.3

COc1cc([C@@H]2c3cc4c(cc3[C@@H](O[C@@H]3O[C@@H]5CO[C@@H](C)O[C@H]5[C@H](O)[C@H]3O)[C@H]3COC(=O)[C@H]23)OCO4)cc(OC)c1O [Etoposide]
Details | normalised viability [%]
[1], 3 nM | 108
[1], 30 nM | 72.3
[1], 100 nM | 61.3
[2], 10 nM | 116
[2], 1000 nM | 96.4
[2], 10000 nM | 87.3
[3], 10 nM | 99.2
[3], 1000 nM | 107
[3], 10000 nM | 81.6
[4], 3 nM | 98.6
[4], 30 nM | 85.8
[4], 100 nM | 77.3
[5], 3 nM | 90.8
[5], 30 nM | 91
[5], 100 nM | 33.6
[6], 10 nM | 78.5
[6], 1000 nM | 64.9
[6], 10000 nM | 38.9
[7], 3 nM | 109
[7], 30 nM | 107
[7], 100 nM | 99.8
[8], 10 nM | 107
[8], 1000 nM | 73
[8], 10000 nM | 35.9
[9], 10 nM | 94.6
[9], 1000 nM | 77.1
[9], 10000 nM | 52.4
[10], 10 nM | 98.2
[10], 1000 nM | 46.5
[10], 10000 nM | 12.9
[11], 10 nM | 92.5
[11], 1000 nM | 73.6
[11], 10000 nM | 59.1
[12], 3 nM | 88.6
[12], 30 nM | 81
[12], 100 nM | 85.7
[13], 10 nM | 115
[14], 100 nM | 84
[15], 100 nM | 108
[16], 100 nM | 77.5
[17], 100 nM | 96.6
[18], 100 nM | 115
[19], 100 nM | 98.7
[20], 10 nM | 91.1
[21], 100 nM | 97.6
[22], 10 nM | 94.2
[23], 100 nM | 91.3
[24], 10 nM | 108
[25], 100 nM | 94.2
[26], 100 nM | 84.3
[27], 100 nM | 58.5
[28], 10 nM | 101
[29], 100 nM | 90.8
[30], 10 nM | 93.8
